Measurements as given in article PMC12251151, “Understanding Anti-Obesity Potential of Four Porphyrin Compounds by Investigating Pancreatic Lipase Inhibition” (Molecules, 2025).
Like-named read-outs stand apart in the source and are kept apart here.

Assays:
pancreatic lipase (PL) [1] = biological target: T1, pancreatic lipase (PL) (Sus scrofa, UniProt P00591); assay: Pancreatic lipase inhibition assay (4-nitrophenyl laurate substrate, absorbance 420 nm); type: biochemical, porcine; settings: 37 °C, 2 h, pH 8.2 Tris-HCl
T1 construct: lipase (porcine pancreas); purchased Shanghai Yuanye Co., Ltd., Shanghai, China; host or cells: porcine pancreas
T1 sequence (P00591 1-450): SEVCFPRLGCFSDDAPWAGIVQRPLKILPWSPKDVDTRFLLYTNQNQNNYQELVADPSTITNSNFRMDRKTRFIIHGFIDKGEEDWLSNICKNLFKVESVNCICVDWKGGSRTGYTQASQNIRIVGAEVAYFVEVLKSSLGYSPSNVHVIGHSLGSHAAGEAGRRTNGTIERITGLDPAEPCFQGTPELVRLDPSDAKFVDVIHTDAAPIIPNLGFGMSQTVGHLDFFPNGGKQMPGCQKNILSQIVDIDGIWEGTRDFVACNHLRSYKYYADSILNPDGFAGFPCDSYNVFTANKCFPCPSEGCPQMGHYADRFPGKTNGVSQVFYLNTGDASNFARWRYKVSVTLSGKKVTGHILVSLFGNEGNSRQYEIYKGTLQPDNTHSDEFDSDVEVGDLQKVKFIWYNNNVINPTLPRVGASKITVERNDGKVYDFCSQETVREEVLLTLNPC
Experimental: A total of 250 mg pancreatic lipase was dissolved in 50 mL ultrapure water. After centrifugation at 5000 r/min for 10 min, the supernatant was taken. Then, 80 mg of 4-nitrophenyl laurate was dissolved in 100 mL of 5 mmol/L sodium acetate solution (pH 5.0, containing 1% triton x-100), and dissolved in a boiling water bath. After cooling to room temperature, it was set aside. […] The blank sample solutions were chromatographic methanol solutions containing 2%, 5%, and 10% DMSO.
The activity of PL was determined by referring to the method and making appropriate modifications. A total of 200 μL of different concentrations of four porphyrin compounds, 500 μL of 4-nitrophenyl laurate (0.80 mg/mL), 400 μL of Tris-HCl buffer (pH 8.2, 0.1 mol/L), and 300 μL of pancreatic lipase (5 mg/mL) were reacted in an incubator at 37 °C for 2 h. The reaction solution was centrifuged at 12,000 rpm for 5 min, and 200 μL of the supernatant was added to a 96-well plate.

pancreatic lipase (PL) [2] = biological target: T1, pancreatic lipase (PL); assay: Fluorescence quenching and binding interaction with PL (Stern-Volmer, double logarithmic, Van't Hoff); set-up: species or system porcine; settings: for Fluorescence quenching mechanism on PL: Stern-Volmer analysis; for Fluorescence quenching mechanism on PL / ΔH^0 / ΔS^0: 298-310 K; for Kd: read-out: Ka (binding constant) (converted); for ΔH^0 / ΔS^0: Van't Hoff; for Main driving forces of binding to PL: from signs of ΔH^0 and ΔS^0
From the text: Judged by the Stern–Volmer equation, the formula is referred to (3):(3) F0/F=1+KSV[Q]=1+Kqτ0[Q],
The modified Stern–Volmer equation [34], formula reference (4):(4) F0/F=e^KSV[Q]=e^Kqτ0[Q],
The double logarithmic equation:(5) logF0−F/F=logKa+nlog[Q],
In the formula, F0 and F are the fluorescence intensities of the enzyme before and after the addition of four porphyrin compounds. KSV and Kq represent the fluorescence quenching constant and the quenching rate constant, respectively. τ0 (10^−8 s) is the average lifetime of the fluorescent molecule in the absence of the fluorescence quencher. [Q] denotes the concentration of the porphyrin compound. Ka is the binding constant. n is the number of binding sites.
The relevant thermodynamic parameters were calculated by Equations (6) and (7), and the Van’t Hoff curves of four porphyrin compounds and enzymes were obtained:(6) lnKa=−ΔH^0/RT+ΔS^0/R, (7) ΔG^0=ΔH^0−TΔS^0=−RTlnKa,
The method of Li et al. was referred to and appropriate changes were made. A series of concentrations of porphyrin compounds were mixed with pancreatic lipase (5 mg/mL) at a volume ratio of 1:1 and incubated at 298, 304, and 310 K for 5 min. The excitation wavelength of the Hitachi fluorescence spectrometer F-7000 ([…], Japan) was set to 280 nm, the slit width was set to 5 nm, and the scanning range was set to 300–500 nm. In order to eliminate the influence of ‘internal filtering effect’ [42], the following formula is used for correction. Fcor=Fobse^(Aex+Aem)/2 , where Fcor and Fobs are the corrected fluorescence intensity and the experimentally measured fluorescence intensity, and Aex and Aem are the UV absorption values of the system at the excitation and emission wavelengths, respectively.

pancreatic lipase (PL) [3] = biological target: T1, pancreatic lipase (PL); assay: Mode of pancreatic lipase inhibition (reversibility, Lineweaver-Burk kinetics); type: biochemical, porcine; settings: for Reversibility of PL inhibition: enzyme concentration vs reaction rate plots; for Ki: uncompetitive model, intercept replot
Experimental: In the formula, v , Vmax, Km, and Ki represent reaction rate, maximum reaction rate, Michaelis constant, and free enzyme inhibition constant, respectively. [S] denotes the substrate concentration. [I] denotes the inhibitor concentration.
By analyzing the relationship between enzyme concentration and reaction rate, a fitting straight line was drawn to determine whether it was reversible.
The concentration of PL was fixed at 5 mg/mL, and the concentration of the substrate 4-nitrophenyl laurate was changed (0.40, 0.80, 1.20, 1.60 mg/mL). By analyzing the relationship between the concentration of different substrates and the reaction rate of the enzyme, the Lineweaver–Burk double reciprocal curve was plotted to determine the inhibition type and calculate the inhibition constant.

IC50 (pancreatic lipase (PL) [1])	Kq (quenching rate constant) (pancreatic lipase (PL) [2]; T 298 K)	Ksv (fluorescence quenching constant) (pancreatic lipase (PL) [2]; T 298 K)	n (number of binding sites) (pancreatic lipase (PL) [2]; T 298 K)	ΔG^0 (pancreatic lipase (PL) [2]; T 298 K)	Kq (quenching rate constant) (pancreatic lipase (PL) [2]; T 304 K)	Ksv (fluorescence quenching constant) (pancreatic lipase (PL) [2]; T 304 K)	n (number of binding sites) (pancreatic lipase (PL) [2]; T 304 K)	ΔG^0 (pancreatic lipase (PL) [2]; T 304 K)	Kq (quenching rate constant) (pancreatic lipase (PL) [2]; T 310 K)	Ksv (fluorescence quenching constant) (pancreatic lipase (PL) [2]; T 310 K)	n (number of binding sites) (pancreatic lipase (PL) [2]; T 310 K)	ΔG^0 (pancreatic lipase (PL) [2]; T 310 K)	ΔH^0 (pancreatic lipase (PL) [2])	ΔS^0 (pancreatic lipase (PL) [2])	Main driving forces of binding to PL (pancreatic lipase (PL) [2])	Reversibility of PL inhibition (pancreatic lipase (PL) [3])	Ki (pancreatic lipase (PL) [3])	SMILES	Fluorescence quenching mechanism on PL (pancreatic lipase (PL) [2])	other results
97.5 µM	1.36 ± 0.02 ×10^12 L/mol/s	1.36 ± 0.02 ×10^4 L/mol	1.52	-37.28 ± 0.17 kJ/mol	1.17 ± 0.03 ×10^12 L/mol/s	1.17 ± 0.03 ×10^4 L/mol	1.38	-34.99 ± 0.11 kJ/mol	1.11 ± 0.04 ×10^12 L/mol/s	1.11 ± 0.04 ×10^4 L/mol	1.33	-33.57 ± 0.09 kJ/mol	-129.48 ± 0.11 kJ/mol	−309.86 ± 0.12 J/mol/k	hydrogen bonds and van der Waals forces	reversible	37.03 ± 0.186 µM	Oc1ccc(-c2c3nc(c(-c4ccc(O)cc4)c4ccc([nH]4)c(-c4ccc(O)cc4)c4nc(c(-c5ccc(O)cc5)c5ccc2[nH]5)C=C4)C=C3)cc1 [THPP, 5,10,15,20-Tetrakis (4-hydroxyphenyl) porphyrin]	mixed quenching dominated by static quenching and supplemented by dynamic quenching	Kd (pancreatic lipase (PL) [2]; T 298 K): 292 nM; Kd (pancreatic lipase (PL) [2]; T 304 K): 968 nM; Kd (pancreatic lipase (PL) [2]; T 310 K): 2200 nM; Vmax (pancreatic lipase (PL) [3]; inhibitor C 36.84 μM): 0.0041 ± 0.0009 ΔOD/min; Vmax (pancreatic lipase (PL) [3]; inhibitor C 73.67 μM): 0.0035 ± 0.0013 ΔOD/min; Vmax (pancreatic lipase (PL) [3]; inhibitor C 147.34 μM): 0.0018 ± 0.0007 ΔOD/min; Vmax (pancreatic lipase (PL) [3]; inhibitor C 221.01 μM): 0.0012 ± 0.0004 ΔOD/min; Vmax (pancreatic lipase (PL) [3]; inhibitor C 294.68 μM): 0.0009 ± 0.0002 ΔOD/min
249 µM	2.36 ± 0.01 ×10^12 L/mol/s	2.36 ± 0.01 ×10^4 L/mol	0.93	-23.56 ± 0.08 kJ/mol	2.33 ± 0.03 ×10^12 L/mol/s	2.33 ± 0.03 ×10^4 L/mol	0.95	-24.48 ± 0.05 kJ/mol	2.32 ± 0.03 ×10^12 L/mol/s	2.32 ± 0.03 ×10^4 L/mol	0.97	-25.37 ± 0.05 kJ/mol	21.34 ± 0.04 kJ/mol	150.70 ± 0.07 J/mol/k	hydrophobic forces	reversible	196.15 ± 0.131 µM	O=C([O-])c1ccc(C2=C3C=CC(=N3)C(c3ccc(C(=O)[O-])cc3)=C3C=CC(=N3)C(=c3ccc(=C([O-])[O-])cc3)c3ccc([n-]3)C(c3ccc(C(=O)[O-])cc3)=C3C=CC2=N3)cc1.[67Cu+2].[H+].[H+].[H+].[H+] [Cu-TCPP, Cu (II) meso-Tetra (4-carboxyphenyl) porphine]	static quenching	Ka (binding constant) (pancreatic lipase (PL) [2]; T 298 K): 0.13 ± 0.01 ×10^5 L/mol; Ka (binding constant) (pancreatic lipase (PL) [2]; T 304 K): 0.16 ± 0.01 ×10^5 L/mol; Ka (binding constant) (pancreatic lipase (PL) [2]; T 310 K): 0.19 ± 0.01 ×10^5 L/mol; Km (pancreatic lipase (PL) [3]; inhibitor C 29.33 μM): 192 ± 4.9 nM; Vmax (pancreatic lipase (PL) [3]; inhibitor C 29.33 μM): 0.0052 ± 0.0013 ΔOD/min; Km (pancreatic lipase (PL) [3]; inhibitor C 58.66 μM): 164 ± 3.7 nM; Vmax (pancreatic lipase (PL) [3]; inhibitor C 58.66 μM): 0.0044 ± 0.0009 ΔOD/min; Km (pancreatic lipase (PL) [3]; inhibitor C 117.33 μM): 133 ± 2.2 nM; Vmax (pancreatic lipase (PL) [3]; inhibitor C 117.33 μM): 0.0036 ± 0.0006 ΔOD/min; Km (pancreatic lipase (PL) [3]; inhibitor C 175.99 μM): 112 ± 4.6 nM; Vmax (pancreatic lipase (PL) [3]; inhibitor C 175.99 μM): 0.0030 ± 0.0012 ΔOD/min; Km (pancreatic lipase (PL) [3]; inhibitor C 234.66 μM): 98.8 ± 1.7 nM; Vmax (pancreatic lipase (PL) [3]; inhibitor C 234.66 μM): 0.0026 ± 0.0005 ΔOD/min
